# Measurements: patent US20030055106A1, “Therapeutic uses of peroxometallic compounds” (priority 1999, published 2003)
# Tests used:
# HUVECs = experiment: HUVEC differentiation and organization into tubular-like structures in fibrin matrix; assay type: cell-based, Human; conditions: 21 days in culture
# Protocol: Alternatively, HUVECs cultured in a fibrin matrix can form 3-dimensional tubular-like structures in the presence of serum (103). This assay was performed in the presence of either bpV(phen), bpv(pic) or vanadate to assess the influence of each one of these compounds on HUVEC differentiation and organization (Table 1). HUVECs were seeded on the bottom of gelatin-coated wells at high density to provide a confluent monolayer at 48 hours.
# Then, 50 000 HUVECs/ml were embedded in fibrinogen solution prior to polymerization. The fibrin matrix was covered with culture medium containing the molecule to be tested, while culture medium without any of these molecules served as controls. Cell behavior was observed periodically by phase contrast microscopy.
# Rat aorta rings = experiment: Rat aortic ring assay (cell/microvessel migration in fibrin gel); assay type: cell-based
# Excerpt: FIG. 3: Micrographs of the cell migration from aortic rings embedded in fibrin (×12).
# FIG. 4: Quantification of the cell migration from aortic rings in the presence of orthovanadate (plain bars); bpV(phen) (light gray bars); and bpV(pic) (dark gray bars). The control appears as an empty bar. Means and standard errors of the means are presented.
# Rat aorta rings were embedded in fibrin matrix as previously described (107). Thoracic aortas excised from adult rats were rinsed in Hank's balanced salt solution (HBSS), and cleansed of periadventitial. One-mm long aortic rings were sectioned and rinsed in culture medium. Each of the aortic rings were then embedded in fibrin gel matrix. Migration of microvessels in fibrin gel was quantified by measuring the distance from the external surface of rat aortic rings towards the migrating vessels. Measurements were performed at day 15 by digitizing morphometry with a NIH image analysis system (FIGS. 3 and 4).
# [1] = system: PC3 prostate cancer cells; experiment: In vitro collagen-fibrin tumor progression model, PC-3; assay type: cell-based, human; conditions: renewed daily, 15 days
# Protocol: FIG. 11: Illustration of the antitumor activity of bpV(phen) in vitro using PC3 prostate cancer cells. Collagen gels containing the PC3 cells were prepared according to the method of Esdale and Bard (1972). Briefly, stock collagen solution (3.5 mg/ml in acetic acid 0.02N; Rat tail) was added to a mixture composed of culture medium (5×), fetal bovine serum (FBS), bicarbonate (0.26M), and was neutralized with 0.1N NaOH. A cell suspension (1.42×10^6 cells/ml) was mixed into the collagen-medium mixture to obtain a final concentration of 2.5×10^5 cells/ml.
# A DMEM medium, having a normal concentration of glucose and without phenol red, was used. After gelification (within 1 h) of the collagen mixture containing the cells, the gels were removed from their culture wells (mould) and interwoven into a receptor hole prepared in a fibrin gel, as previously described (103). The fibrin gel was made from a 0.3% fibrinogen solution in Hank's balanced salt solution. Fibrin was allowed to polymerize with thrombin (stock solution at 1.75 mg/ml) at a ratio of 1:003 v/v fibrin to thrombin. The collagen-fibrin complexes were then covered with serum-supplemented medium according to the cell types. An inhibitor of plasminogen activator (Trasylol, Parke Davies) was added into the medium at 10 μl/ml (100U/ml).
# Cell behavior was periodically monitored over 15 days of culture. […]
# [2] = system: Human prostate adenocarcinoma (PC-3); experiment: Human prostate adenocarcinoma (PC-3) xenograft; assay type: in vivo, Male Balb/c nude (nu/nu) mice; conditions: 5 mg/Kg daily i.p. for 39 days
# Protocol: B) Human prostate adenocarcinoma (PC-3) in the athymic mice: Male Balb/c nude (nu/nu) were purchased at 4-6 weeks of age from Charles Rivers Inc. Mice were housed under pathogen free conditions and maintained on a 12-h light/12-h dark cycle with food and water supplied ad libitum. The hormono-independent PC3 human tumor cells were from the American Tissue Cuture Collection. Cells were grown in DMEM in the presence of 5% foetal bovine serum. Cells were collected at confluence, included in a matrix (1.0×10^6 cells/ml; 30% Matrigel). An equal volume of the tumor cell suspension was injected s.c. in the right flank of each mouse. After 5 days, a palpable tumor of approximately 5×5 mm was detected in the inoculated animals. Mice with palpable tumors were divided into five groups (18 mice/group) for the treatment study. All mice in each treatment group had tumor of similar size at the start of treatment. For administration to mice, bpV(phen) was dissolved and diluted in phosphate buffered saline (PBS) at pH 7.4. A 5 mg/Kg dose of bpV(phen) was administed daily by i.p. for 39 days. Taxol was used as a positive control at the dose of 20 mg/Kg and injected i.p. at every three days. A control group of 10 animals was injected with PBS. The injection volume was kept constant at […]. The mice were weighed three times during the experimental period to assess toxicity of the treatment, and the tumors were measured twice weekly using calipers. Tumor volume was calculated from the two-dimensional caliper measurements using the following formula: tumor volume=length×(width)^2×0.53.
# The treatment period was completed after 39 days, when the PBS treated group of mice had large tumors, requiring that the animals be sacrificed according to the Animal Care Procedures. […]
# Statistical analysis: Tumor growth curves are presented in terms of treatment group means and SEs. Statistical significance of treatment effect was assessed by repeated measures ANOVA after applying a power transformation to equalize residual variances and linearize the tumor growth curves.
smiles,measurement,setting,value
"O.O.O.OO.OO.[K+].[OH-].[V].c1cnc2c(c1)ccc1cccnc12 [bpV(phen), potassium bisperoxo(1,10-phenanthroline)oxovanadate]",structures observed by phase contrast microscopy,HUVECs; 1 μM,"cord-like structures (or cords), tube-like structures (or tubes) and stellate structures (or Stell.struct.) were observed"
same,structures observed by phase contrast microscopy,HUVECs; 2 and 3.5 μM,fragmented cord-like structures were apparent
same,cell migration from aortic rings,"Rat aorta rings; 1 μM, compared to control",impaired
same,cell migration from aortic rings,Rat aorta rings; 3.5 μM,strong inhibition
same,"progression of PC-3 cells (secondary tumors, migration front)",[1]; 2 μM,a decrease in the size of the secondary tumor was observed
same,"progression of PC-3 cells (secondary tumors, migration front)",[1]; 5 and 10 μM,there was no migration front and there were no secondary tumors
same,deaths,[2],No death
same,suppression of the final tumor compared with PBS-treated control animals,[2],59%
same,body weight gained relative to weight at the initiation of the treatment,[2]; average,1.7 grams
